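A five-concentration, 48-hour dose response in 96-well plates underlies each endpoint, interpolated linearly between surrounding concentrations. GI50 is the concentration that inhibits growth by half. TGI: total growth inhibition.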
Key:
Assay in all cases: growth of human tumour cells (NCI), 48 h
SN12C renal = tested on: SN12C renal
ACHN renal = tested on: ACHN renal
SK-MEL-5 melanoma = tested on: SK-MEL-5 melanoma
NCI-H226 lung = tested on: NCI-H226 lung
BT-549 breast = tested on: BT-549 breast
HCT-116 colon = tested on: HCT-116 colon
COLO 205 colon = tested on: COLO 205 colon
SF-539 CNS = tested on: SF-539 CNS
RXF 393 renal = tested on: RXF 393 renal
OVCAR-4 ovarian = tested on: OVCAR-4 ovarian
SK-MEL-2 melanoma = tested on: SK-MEL-2 melanoma
U251 CNS = tested on: U251 CNS
SF-268 CNS = tested on: SF-268 CNS
KM12 colon = tested on: KM12 colon
MOLT-4 leukemia = tested on: MOLT-4 leukemia
HCT-15 colon = tested on: HCT-15 colon
HT29 colon = tested on: HT29 colon
NCI-H23 lung = tested on: NCI-H23 lung
NCI-H522 lung = tested on: NCI-H522 lung
HS 578T breast = tested on: HS 578T breast
M14 melanoma = tested on: M14 melanoma
T-47D breast = tested on: T-47D breast
MCF7 breast = tested on: MCF7 breast
HCC-2998 colon = tested on: HCC-2998 colon
UACC-257 melanoma = tested on: UACC-257 melanoma
SK-OV-3 ovarian = tested on: SK-OV-3 ovarian
SK-MEL-28 melanoma = tested on: SK-MEL-28 melanoma
SNB-19 CNS = tested on: SNB-19 CNS
MDA-MB-231 breast = tested on: MDA-MB-231 breast
UACC-62 melanoma = tested on: UACC-62 melanoma
MDA-MB-435 = tested on: MDA-MB-435
TK-10 renal = tested on: TK-10 renal
786-0 renal = tested on: 786-0 renal
SNB-75 CNS = tested on: SNB-75 CNS
HOP-62 NSCLC = tested on: HOP-62 NSCLC
HL-60(TB) leukemia = tested on: HL-60(TB) leukemia
SR leukemia = tested on: SR leukemia
A498 renal = tested on: A498 renal
IGROV1 ovarian = tested on: IGROV1 ovarian
K-562 leukemia = tested on: K-562 leukemia
MALME-3M melanoma = tested on: MALME-3M melanoma
HOP-92 NSCLC = tested on: HOP-92 NSCLC
OVCAR-5 ovarian = tested on: OVCAR-5 ovarian
CAKI-1 renal = tested on: CAKI-1 renal
NCI-H460 lung = tested on: NCI-H460 lung
A549 NSCLC = tested on: A549 NSCLC
NCI/ADR-RES ovarian = tested on: NCI/ADR-RES ovarian
LOX IMVI melanoma = tested on: LOX IMVI melanoma
PC-3 prostate = tested on: PC-3 prostate
UO-31 renal = tested on: UO-31 renal
OVCAR-3 ovarian = tested on: OVCAR-3 ovarian
RPMI-8226 leukemia = tested on: RPMI-8226 leukemia
CCRF-CEM leukemia = tested on: CCRF-CEM leukemia
SF-295 CNS = tested on: SF-295 CNS
SW-620 colon = tested on: SW-620 colon
EKVX NSCLC = tested on: EKVX NSCLC
DU-145 prostate = tested on: DU-145 prostate
OVCAR-8 ovarian = tested on: OVCAR-8 ovarian

CC1=C(CCC=NNC(N)=O)C2=C(C)C3(CC3)[C@@](C)(O)C(=O)C2=C1
GI50 (SN12C renal): 369 nM | TGI (SN12C renal): 2500 nM | GI50 (ACHN renal): 250 nM | TGI (ACHN renal): 695 nM | GI50 (SK-MEL-5 melanoma): 231 nM | TGI (SK-MEL-5 melanoma): 617 nM | GI50 (NCI-H226 lung): 421 nM | TGI (NCI-H226 lung): 3810 nM | GI50 (BT-549 breast): 226 nM | TGI (BT-549 breast): 695 nM | GI50 (HCT-116 colon): 272 nM | TGI (HCT-116 colon): 2480 nM | GI50 (COLO 205 colon): 230 nM | TGI (COLO 205 colon): 647 nM | GI50 (SF-539 CNS): 225 nM | TGI (SF-539 CNS): 614 nM | GI50 (RXF 393 renal): 145 nM | TGI (RXF 393 renal): 306 nM | GI50 (OVCAR-4 ovarian): 439 nM | TGI (OVCAR-4 ovarian): 1700 nM | GI50 (SK-MEL-2 melanoma): 520 nM | TGI (SK-MEL-2 melanoma): 1030 nM | GI50 (U251 CNS): 440 nM | TGI (U251 CNS): 4190 nM | GI50 (SF-268 CNS): 318 nM | TGI (SF-268 CNS): 4570 nM | GI50 (KM12 colon): 1640 nM | TGI (KM12 colon): 5380 nM | GI50 (MOLT-4 leukemia): 2790 nM | TGI (MOLT-4 leukemia): 20900 nM | GI50 (HCT-15 colon): 281 nM | TGI (HCT-15 colon): 1320 nM | GI50 (HT29 colon): 351 nM | TGI (HT29 colon): 1900 nM | GI50 (NCI-H23 lung): 174 nM | TGI (NCI-H23 lung): 743 nM | GI50 (NCI-H522 lung): 515 nM | TGI (NCI-H522 lung): 1960 nM | GI50 (HS 578T breast): 1860 nM | TGI (HS 578T breast): 6280 nM | GI50 (M14 melanoma): 196 nM | TGI (M14 melanoma): 449 nM | GI50 (T-47D breast): 245 nM | TGI (T-47D breast): 1480 nM | GI50 (MCF7 breast): 426 nM | TGI (MCF7 breast): 12100 nM | GI50 (HCC-2998 colon): 350 nM | TGI (HCC-2998 colon): 1150 nM | GI50 (UACC-257 melanoma): 538 nM | TGI (UACC-257 melanoma): 2130 nM | GI50 (SK-OV-3 ovarian): 246 nM | TGI (SK-OV-3 ovarian): 666 nM | GI50 (SK-MEL-28 melanoma): 700 nM | TGI (SK-MEL-28 melanoma): 2150 nM | GI50 (SNB-19 CNS): 717 nM | TGI (SNB-19 CNS): 7860 nM | GI50 (MDA-MB-231 breast): 412 nM | TGI (MDA-MB-231 breast): 2000 nM | GI50 (UACC-62 melanoma): 488 nM | TGI (UACC-62 melanoma): 1310 nM | GI50 (MDA-MB-435): 1320 nM | TGI (MDA-MB-435): 3250 nM | GI50 (TK-10 renal): 318 nM | TGI (TK-10 renal): 1610 nM | GI50 (786-0 renal): 232 nM | TGI (786-0 renal): 623 nM | GI50 (SNB-75 CNS): 253 nM | TGI (SNB-75 CNS): 748 nM | GI50 (HOP-62 NSCLC): 234 nM | TGI (HOP-62 NSCLC): 753 nM | GI50 (HL-60(TB) leukemia): 274 nM | TGI (HL-60(TB) leukemia): 1770 nM | GI50 (SR leukemia): 2580 nM | TGI (SR leukemia): 61800 nM | GI50 (A498 renal): 317 nM | TGI (A498 renal): 902 nM | GI50 (IGROV1 ovarian): 248 nM | TGI (IGROV1 ovarian): 1270 nM | GI50 (K-562 leukemia): 3430 nM | TGI (K-562 leukemia): 17800 nM | GI50 (MALME-3M melanoma): 316 nM | TGI (MALME-3M melanoma): 913 nM | GI50 (HOP-92 NSCLC): 238 nM | TGI (HOP-92 NSCLC): 702 nM | GI50 (OVCAR-5 ovarian): 325 nM | TGI (OVCAR-5 ovarian): 1420 nM | GI50 (CAKI-1 renal): 281 nM | TGI (CAKI-1 renal): 2800 nM | GI50 (NCI-H460 lung): 159 nM | TGI (NCI-H460 lung): 3740 nM | GI50 (A549 NSCLC): 281 nM | TGI (A549 NSCLC): 1350 nM | GI50 (NCI/ADR-RES ovarian): 420 nM | TGI (NCI/ADR-RES ovarian): 4580 nM | GI50 (LOX IMVI melanoma): 457 nM | TGI (LOX IMVI melanoma): 2110 nM | GI50 (PC-3 prostate): 528 nM | TGI (PC-3 prostate): 5240 nM | GI50 (UO-31 renal): 160 nM | TGI (UO-31 renal): 373 nM | GI50 (OVCAR-3 ovarian): 415 nM | TGI (OVCAR-3 ovarian): 3250 nM | GI50 (RPMI-8226 leukemia): 5580 nM | TGI (RPMI-8226 leukemia): 32600 nM | GI50 (CCRF-CEM leukemia): 3930 nM | TGI (CCRF-CEM leukemia): 26200 nM | GI50 (SF-295 CNS): 289 nM | TGI (SF-295 CNS): 1150 nM | GI50 (SW-620 colon): 5790 nM | TGI (SW-620 colon): 19600 nM | GI50 (EKVX NSCLC): 1440 nM | TGI (EKVX NSCLC): 6160 nM | GI50 (DU-145 prostate): 120 nM | TGI (DU-145 prostate): 5030 nM | GI50 (OVCAR-8 ovarian): 238 nM | TGI (OVCAR-8 ovarian): 926 nM
